Values quoted from earlier work in patent US20100136094A1, “Systems for modulating inflammation” (Searete LLC, a limited liability corporation of the state …, priority 2008, published 2010).
Each block holds one compound with its values, some of them ahead of it.

Legend:
Src family kinase = conditions: Sanjuan et al. 2006
[1] = system: proteasomal activity in cultured breast cancer cells; conditions: on binding copper, Chen et al. 2006
[2] = system: Src family kinases (Src, Lck, Yes, Fyn); conditions: at nanomolar concentrations
Epha1 = conditions: at nanomolar concentrations
mice = conditions: Nakamura et al. 2007
Toll-like receptor 4 = Toll-like receptor 4 (Homo sapiens, UniProt O00206); conditions: Nakamura et al. 2007
Toll-like receptor 4, sequence (O00206 24-839, species assumed): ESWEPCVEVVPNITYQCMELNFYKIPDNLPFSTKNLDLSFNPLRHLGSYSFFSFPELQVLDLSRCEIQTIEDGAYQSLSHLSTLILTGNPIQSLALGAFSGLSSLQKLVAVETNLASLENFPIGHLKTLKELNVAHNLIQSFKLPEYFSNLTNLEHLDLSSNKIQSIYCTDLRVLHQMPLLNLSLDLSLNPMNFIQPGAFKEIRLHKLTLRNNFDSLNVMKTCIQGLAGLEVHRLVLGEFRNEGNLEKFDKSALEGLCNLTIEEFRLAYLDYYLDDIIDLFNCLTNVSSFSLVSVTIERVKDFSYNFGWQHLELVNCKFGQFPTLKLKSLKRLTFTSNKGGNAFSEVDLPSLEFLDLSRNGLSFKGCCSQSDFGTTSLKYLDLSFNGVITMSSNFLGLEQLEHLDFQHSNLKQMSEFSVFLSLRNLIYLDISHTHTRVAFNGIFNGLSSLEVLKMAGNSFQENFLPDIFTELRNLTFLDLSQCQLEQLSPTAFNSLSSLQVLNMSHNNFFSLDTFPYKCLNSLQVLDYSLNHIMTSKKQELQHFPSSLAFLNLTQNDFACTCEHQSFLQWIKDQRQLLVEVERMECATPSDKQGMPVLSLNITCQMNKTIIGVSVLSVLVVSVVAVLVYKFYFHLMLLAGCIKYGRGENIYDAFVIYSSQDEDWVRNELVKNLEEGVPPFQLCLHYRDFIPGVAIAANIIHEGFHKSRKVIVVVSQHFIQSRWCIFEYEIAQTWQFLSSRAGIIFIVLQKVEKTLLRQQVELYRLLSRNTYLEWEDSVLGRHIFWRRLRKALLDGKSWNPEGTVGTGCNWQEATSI

[3] = 400 mg infused over one hour, single agent; Looareesuwan et al. 1986

inhibition of CpG-induced Src family kinase activation, or its dependent cellular responses (Src family kinase): does not inhibit
SMILES: CCN(CC)CCCC(C)Nc1ccnc2cc(Cl)ccc12 (centres unmarked) [Chloroquine]

SMILES: CCN(CC)C(=S)SSC(=S)N(CC)CC [Disulfiram, 1-(diethylthiocarbamoyldisulfanyl)-N,N-diethyl-methanethioamide]
proteasomal activity [1]: inhibits proteasomal activity
inhibition of aldehyde dehydrogenase (aldehyde dehydrogenase): inhibits aldehyde dehydrogenase without toxicity

SMILES: Cc1nc(Nc2ncc(C(=O)Nc3c(C)cccc3Cl)s2)cc(N2CCN(CCO)CC2)n1.O [dasatinib, N-(2-chloro-6-methylphenyl)-2-[[6-[4-(2-hydroxyethyl)-1-piperazinyl]-2-methyl-4-pyrimidinyl]amino]-5-thiazolecarboxamide, monohydrate]
inhibition of Src family kinases (Src, Lck, Yes, Fyn) [2]: inhibits
inhibition of Epha1 (Epha1): inhibits

SMILES: Cl.Cl.Nc1ccccc1Oc1ccc2c(N)nsc2c1 [Example M62812, 3-amino-6-(2-aminophenoxy)-1,2-benzisothiazole dihydrochloride]
prevention of lethal septic shock (mice): prevents lethal septic shock
inhibition of Toll-like receptor 4 (Toll-like receptor 4): inhibitor

SMILES: CCN(CC)CCCC(C)Nc1ccnc2cc(Cl)ccc12.O=P(O)(O)O.O=P(O)(O)O (centres unmarked) [chloroquine phosphate, 7-chloro-4-[[4-(diethylamino)-1-methylbutyl]amino]quinoline phosphate (1:2)]
tolerability of intravenous infusion [3]: without complication
